# Data published in article PMC11219860, “A chemogenetic approach for dopamine imaging with tunable sensitivity” (Nature Communications, 2024).
# Columns and labels:
# [1] = test system: dLight1.3b-expressing HEK293T sniffer cells on primary DArgic neurons; assay: DA release imaging from cultured DArgic neurons with dLight1.3b sniffer cells; format: cell-based, mouse; settings: 4-AP 250 µM in perfusion
# Procedure: Primary DA (DA) neurons were grown on a layer of cortical astrocytes. The astrocytes were first prepared from P0-P2 C57BL6 mice, grown in T75 flask and then seeded on collagen/poly-L-lysine coated 15 mm glass coverslips at a concentration of 100,000 cells/ml. The cells were allowed to grow until close to confluence before the seeding of neurons. Primary DArgic neurons were prepared and cultured from P0-P2 mouse pups using a previously described protocol. Briefly, the ventral midbrain of P0-P2 pups was dissected from DAT^IREScre x Ai9 mice in which DA neurons expressed the red fluorescent protein tdTomato. These were produced by crossing DAT^IREScre mice (catalog #006660, Jackson Labs[31]) to Ai9/tdTomato mice (catalog #007905, Jackson Labs[32]). Both of these lines were on a C57BL/6 J background. Midbrain cells were seeded at a concentration of 240,000 cells/ml on top of the astrocyte monolayer and allowed to grow for 10 days (10 DIV). Two days before imaging, expression of dLight1.3b was induced in stable HEK cells with doxycycline. One day prior to imaging, HEK cells were lifted using trypsin, and 150,000 HEK cells were seeded on top of 10 DIV-cultured neurons in doxycycline-supplemented neuronal medium. Imaging was performed on a confocal microscope (Nikon A1 HD25) using a 40X dry objective and a 488 nm laser to excite dLight1.3b and a 546 nm laser to activate tdTomato and identify DA neurons. On the day of imaging, physiological saline containing drugs at the specified concentration ([…], Sigma; SCH23390, Sigma; DETQ, Enamine) were applied on the culture using a computer-controlled perfusion system (Automate system). A field containing one or more DA neurons was selected based on the tdTomato signal. […]
# Event detection was performed using a thresholding algorithm adapted from[80]. In brief, the recorded field of view was divided into square ROIs of 55 um x 55 um size. […] A rolling standard deviation was calculated with the same window size. Events were defined as timepoints at which the fluorescence intensity reading exceeds the averaged intensity by 5 standard deviations.
# [2] = test system: DRD1-MSNs; assay: Whole-cell electrophysiology of DRD1-MSNs in dorsal striatum brain slices; format: cell-based, mouse
# Procedure: For experiments involving SKF38393 application, to identify DRD1 receptor (DRD1)-positive neurons in the dorsal striatum, DRD1:cre mice injected with AAV5-hSyn-dlox-ChrimsonR-tdTomato were used. 3–4 weeks after viral injection, mice were anesthetized with 5% isoflurane and euthanized by decapitation. […] Slices were kept at 34 °C for 10–20 minutes and then at room temperature until recordings. In the recording chamber, slices were superfused with ACSF at 30–32 °C. Patch pipettes (3–7 MΩ) were pulled from borosilicate glass pipettes (GC150T-10, Harvard Apparatus). The internal solution contained (in mM): potassium gluconate 130, MgCl2 4, MgATP 3.4, Na3GTP 0.1, creatine phosphate 10, HEPES 5, and EGTA 1.1. The membrane potential was measured using EPC 10 USB Patch Clamp Amplifiers (HEKA). The access resistance was monitored by a hyperpolarizing step of −10 mV. The identification of DRD1-positive neurons was performed by the presence of red fluorescence protein and photo-evoked current or potential (@2 Hz, 10 ms duration, 2 pulses or 500 ms continuous pulse. light source: Colibri 7, Zeiss; 630 nm wavelength, 1 mW). To assess the excitability of neurons, positive currents were injected (0–500 pA) and the number of action potentials was counted at each current step. To measure input resistance, negative currents were injected (−200 to 0 pA, every 50 pA, 500 ms), as previously described. The resting membrane potential was measured at 0 pA current input.
# Action potentials were evoked by current injection (50–500 pA, 500 ms) in current-clamped neurons. Neurons were recorded from in the presence of picrotoxin (100 µM), CGP55485 (0.3 µM), DNQX (10 µM), and MK801 (10 µM) to block GABAA, GABAB, AMPA and NMDA receptors, respectively. DA (10 µM) was applied to brain slices in the presence of cocaine (5 µM) to prevent reuptake.
# [3] = test system: human DRD1 (hmDRD1); settings: human clones; ref Hao et al., 2019; Wang et al., 2018; cited from earlier work
# [4] = target: T1, msDRD1 (Mus musculus, UniProt Q61616); settings: rodent (rat or mouse); ref Hao et al., 2019; Wang et al., 2018; cited from earlier work
# T1 construct: expressed in transfected cells; host or cells: HEK293T
# [5] = target: dLight1.3b (Homo sapiens, UniProt P21728); assay: DA titrations on dLight1.3b-expressing HEK293 cells (confocal fluorescence imaging); format: cell-based; settings: D1-PAM 5 μM
# Procedure: Cells were transfected at 50–60% confluency in glass-bottomed dishes (either individually or in 24-well plates) using the Effectene transfection kit (Qiagen) according to manufacturer instructions, and imaged 24–48 h after transfection. The Flp-In™ T-REx™ 293 cells (Thermo Fisher) with a stably integrated dLight1.3b cassette[48] were cultured as follows: the cells were cultured using HEK293T cell medium with the addition of Blasticidin (15 µg/ml) and Hygromycin B (200 µg/ml). To induce the expression of dLight1.3b, doxycycline (500 ng/ml) was added to the culture medium for 24–48 hours. Before imaging, cells were rinsed with 1 mL of Hank’s Balanced Salt Solution (HBSS, Life Technologies) supplemented with Ca^2+ (2 mM) and Mg^2+ (1 mM), and imaged at room temperature with a final HBSS volume of either 100 µL for each individual 1.5 cm glass bottom dish, or 500 µL for 24-well plates. Time-lapse imaging was performed on an inverted Zeiss LSM 800 confocal microscope using a 488 nm laser and a 40X oil-based objective. During imaging, ligands were added in bolus on the cells using a micropipette to reach the final specified concentrations of ligand over the cells. For quantification, except otherwise noted, regions of interest (ROI) were selected manually using the threshold function of Fiji to isolate the cell membrane. Sensor response (∆F/F) was calculated as the following: (F(t)-F_base)/F_base with F(t) being the ROI fluorescence value at each time point (t), and F_base being the mean fluorescence of the 10-time points immediately prior to ligand addition.
# T1 sequence (Q61616 whole entry): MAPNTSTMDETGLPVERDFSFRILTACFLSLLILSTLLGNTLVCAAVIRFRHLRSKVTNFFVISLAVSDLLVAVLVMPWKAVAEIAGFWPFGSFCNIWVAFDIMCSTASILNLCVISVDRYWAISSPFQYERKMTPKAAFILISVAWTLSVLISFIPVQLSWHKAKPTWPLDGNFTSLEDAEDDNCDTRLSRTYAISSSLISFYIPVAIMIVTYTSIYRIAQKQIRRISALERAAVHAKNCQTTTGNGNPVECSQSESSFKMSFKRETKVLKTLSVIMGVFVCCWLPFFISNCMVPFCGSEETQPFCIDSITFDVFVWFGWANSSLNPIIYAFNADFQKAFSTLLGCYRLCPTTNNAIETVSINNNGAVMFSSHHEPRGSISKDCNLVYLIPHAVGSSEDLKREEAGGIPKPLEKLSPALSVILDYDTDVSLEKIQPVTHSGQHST
compound,measurement,setting,value
"Nc1ccncc1 [4-AP, 4-aminopyridine]",DA release events,[1],larger localized DA release events started to become noticeable
"NCCc1ccc(O)c(O)c1 [DA, Dopamine]",number of action potentials evoked by current injection,[2]; DA 10 µM bath application vs control,increased the number of action potentials
"C[C@H]1c2cccc(CCC(C)(C)O)c2C[C@H](CO)N1C(=O)Cc1c(Cl)cccc1Cl [LY315207, 2-(2,6-Dichlorophenyl)-1-((1S,3R)-5-(3-hydroxy-3-methylbutyl)-3-(hydroxymethyl)-1-methyl-3,4-dihydroisoquinolin-2(1H)-yl)ethan-1-one]",maximal potentiation of dopamine,[3],75-85%
same,partial potentiation of dopamine (% of max potentiation),[4],45-53%
Cn1c2ccccc2c(=O)c2c(=O)n(-c3ccccc3)c(C3CCCCC3)nc21 [MLS1082],effect on the DA sensitivity of dLight1.3b,[5],did not have a noticeable effect
CC(C)(C)C1CCc2c(sc(NC(=O)c3ccncc3)c2C(N)=O)C1 (stereo not shown) [MLS6585],effect on the DA sensitivity of dLight1.3b,[5],did not have a noticeable effect
Oc1cc2c(cc1O)C(c1ccccc1)CNCC2 (stereo not shown) [SKF38393],firing rate during current-injection of DRD1-MSNs,[2]; SKF38393 1 µM superfusion,significant increase
